This is an account of results in the NIST ThermoML archive (doi:10.1021/acs.jced.9b00179).

One may read the refractive index as a measure of how strongly the sample bends light.

Data set [1] in a line: refractive index (Na D-line) (dimensionless). The following applies: 293.15 K; 101.33 kPa; Liquid; Standard Abbe refractometry.
For data set [2] the following is noted: Crystal; DSC.
The nature of data set [3]: Molar enthalpy of transition or fusion. Particulars: Crystal; DSC.

Numbers after ± are expanded uncertainties.

For `C[S+](C)[O-]` [dimethyl sulfoxide], the refractive index in data set [1] is on record as 1.4791 ± 0.0011.

Regarding `CCCCO` [butan-1-ol], the refractive index in data set [1] came to 1.3986 ± 0.0011.

`O` [water]: the refractive index in data set [1] came out at 1.3331 ± 0.001.

Turning to `CCC(C)=O` [butanone], in data set [1], the refractive index came out at 1.379 ± 0.0011.

`C[C@@H](c1ncncc1F)[C@](O)(Cn1cncn1)c1ccc(F)cc1F` [voriconazole]: in data set [2], the Triple point temperature is 403.4 ± 1 K. Moreover, the “Molar enthalpy of transition or fusion” value in data set [3] is 6.43 ± 0.645 kcal/mol.

Consider `CC[C@@H]([C@H](C)O)n1ncn(-c2ccc(N3CCN(c4ccc(OC[C@@H]5CO[C@@](Cn6cncn6)(c6ccc(F)cc6F)C5)cc4)CC3)cc2)c1=O` [posaconazole], for which the Triple point temperature in data set [2] is given as 444.6 ± 1 K. The “Molar enthalpy of transition or fusion” value in data set [3] came out at 11.4 ± 1.17 kcal/mol.

Regarding `CC(C)CO` [2-methyl-1-propanol], the refractive index in data set [1] came to 1.3957 ± 0.0011.

As to `CC(C)O` [propan-2-ol], the refractive index in data set [1] was determined as 1.3774 ± 0.0011.

For `CCCO` [propan-1-ol], the refractive index in data set [1] was found to be 1.3852 ± 0.001.

In the case of `CCCC(C)=O` [pentan-2-one], the refractive index in data set [1] turned out to be 1.3892 ± 0.0011.

Regarding `CN(C)C=O` [dimethylformamide], the refractive index in data set [1] is 1.4303 ± 0.001.

Consider `O=C(O)c1ccccc1` [benzoic acid], for which the Triple point temperature in data set [2] came out at 396.8 ± 1 K. In data set [3], the “Molar enthalpy of transition or fusion” value was 4.19 ± 0.43 kcal/mol.

For `CCO` [ethanol], the refractive index in data set [1] was found to be 1.3613 ± 0.0011.
